Assay results as given in paper PMC6430500, “3-Fluoro-4-hydroxyprolines: Synthesis, Conformational Analysis, and Stereoselective Recognition by the VHL E3 Ubiquitin Ligase for Targeted Protein Degradation” (Journal of the American Chemical Society, 2018).

Tests used:
Brd4BD2 = target: T1, Brd4BD2 (Homo sapiens, UniProt O60885); assay: ITC of PROTACs, binary titration with Brd4BD2; type: binding; details: PROTAC in cell, Brd4BD2 in syringe
T1 construct: Brd4BD2 (333–460); made in house; host or cells: E. coli BL21(DE3)
Text: structure (C2 R, C3 S, C4 R) assumed on the basis of unchanging stereogenic centres in the synthesis.
Final R(F) = 0.033, wR(F 2) = 0.085 for 275 parameters and 3901 reflections with I > 2σ(I) (corresponding R-values based on all 4067 reflections = 0.035 and 0.086, respectively), CCDC […]
Protein expression and purification.
Wild-type versions of human proteins VHL (UniProt accession number: P40337), ElonginC […]
expression. For expression of VBC, N-terminally His6-tagged VHL (54–213), ElonginC (17–112) and ElonginB (1–104) were co- expressed in Escherichia coli BL21(DE3) at 24 °C for 16 h using 0.3 mM isopropyl β-D -1-thiogalactopyranoside (IPTG). E. coli cells were lysed using a pressure cell homogenizer (Stansted Fluid Power) and lysate clarified by centrifugation. His6-tagged VCB was purified on a HisTrap FF affinity column (GE Healthcare) by elution with an imidazole gradient. The His6tag was removed using TEV protease and the untagged complex dialyzed into low -concentration imidazole buffer. VCB was then flowed through the HisTrap FF column a second time, allowing impurities to bind, as the complex eluted without binding. VCB was then additionally purified by anion exchange and size-exclusion chromatography using ResourceQ and Superdex-75 columns (GE Healthcare), respectively. The final purified complex was stored in 20 mM Bis–Tris, pH 7, 150 mM sodium chloride and 1 mM dithiothreitol (DTT). Brd2BD1 (71–194), and Brd4BD2 (333–460) were expressed with an N-terminal His6 tag in E. coli BL21(DE3) at 18 °C for 20 h using 0.2 mM IPTG.
His6-tagged BDs were purified on nickel Sepharose 6 fast flow beads (GE Healthcare) by elution with increasing concentrations of imidazole. For crystallography the His6-tagged BD was cleaved with TEV protease and dialyzed into low-concentration imidazole buffer. The BD was then flowed over the nickel beads a second time to remove impurities and protease. BDs were then additionally purified by size-exclusion chromatography using a Superdex-75 column. The BDs were purified by size-exclusion chromatography using a Superdex-75 column. The final purified proteins were stored in 20 mM 4-(2-hydroxyethyl)-1-piperazineethanesulfonic acid (HEPES), pH 7.5, 150 mM sodium chloride and 1 mM DTT. All chromatography purification steps were performed using Äkta FPLC purification systems (GE Healthcare) or glass econo-columns (Bio-Rad) at room temperature.
Isothermal titration calorimetry (ITC) of peptides and ligands
Titrations were performed on an ITC200 micro-calorimeter (GE Healthcare). The peptides were dissolved in buffer (20 mM Bis–Tris propane, 100 mM NaCl, 1 mM tris(2-carboxyethyl)phosphine […]
(TCEP), pH 7.4) at 100 µM. The compounds were titrated against 10 µM VBC complex, equilibrated in the same buffer. The titrations consisted of 20 injections of 2 µL of peptide solution at a rate of 0.5 µL/s at 120 s time intervals. An initial injection of ligand (0.4 µL) was made and discarded during data analysis. All experiments were performed at 25°C while stirring at 650 rpm.
Ligands 14a- b were diluted from DMSO stock solution to 300 µM in buffer (20 mM Bis-Tris propane, 150 mM NaCl, 1 mM TCEP, pH 7.4). The compounds were titrated against 30 µM VBC complex, equilibrated in the same buffer. The final concentration of DMSO in each experiment was […]
The data were fitted to a single-binding-site model using the MicroCal PEAQ-ITC analysis software provided by the manufacturer to obtain the stoichiometry n, the dissociation constant K d, and the enthalpy of binding ΔH . The reported values are the mean ± s.e.m. from independent measurements.
Isothermal titration calorimetry (ITC)of PROTACs
The titrations were all performed as reverse mode (protein in syringe, ligand in cell) and consisted of 19 injections of 2 µl protein solution (20 mM Bis–Tris propane, 100 mM NaCl, 1 mM tris(2-carboxyethyl)phosphine (TCEP), pH 7.4) at a rate of 0.5 µl/s at 120 s time intervals. An initial injection (0.4 µl) was made and discarded during data analysis. […]

Brd3 = target: T2, Brd3 (Homo sapiens, UniProt Q15059); assay: BET protein degradation in HeLa cells, Western blot; type: cell-based; details: 24 h
T2 construct: endogenous in cells; host or cells: HeLa
T2 sequence (Q15059 whole entry): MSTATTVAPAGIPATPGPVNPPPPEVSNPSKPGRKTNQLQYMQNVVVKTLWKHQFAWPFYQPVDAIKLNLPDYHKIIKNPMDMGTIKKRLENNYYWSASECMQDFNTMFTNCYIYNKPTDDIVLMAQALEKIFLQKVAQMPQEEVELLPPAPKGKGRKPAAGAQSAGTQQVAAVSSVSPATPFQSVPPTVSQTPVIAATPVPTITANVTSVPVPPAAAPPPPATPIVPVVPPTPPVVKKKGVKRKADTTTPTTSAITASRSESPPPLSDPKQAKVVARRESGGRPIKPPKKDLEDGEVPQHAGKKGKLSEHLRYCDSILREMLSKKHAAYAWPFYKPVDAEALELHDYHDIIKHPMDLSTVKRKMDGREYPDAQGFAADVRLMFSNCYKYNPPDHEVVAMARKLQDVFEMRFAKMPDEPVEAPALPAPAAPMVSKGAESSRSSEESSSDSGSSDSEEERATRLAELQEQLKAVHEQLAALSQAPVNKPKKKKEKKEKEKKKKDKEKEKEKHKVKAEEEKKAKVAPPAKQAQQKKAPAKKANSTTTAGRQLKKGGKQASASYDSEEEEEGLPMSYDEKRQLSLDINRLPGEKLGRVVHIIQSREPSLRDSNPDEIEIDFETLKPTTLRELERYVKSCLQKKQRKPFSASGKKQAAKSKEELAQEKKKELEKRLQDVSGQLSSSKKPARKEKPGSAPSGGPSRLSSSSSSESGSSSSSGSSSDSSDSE
Experimental: (§1) HeLa and A549 cells were kept in DMEM (Gibco) supplemented with 10%(v/v) FBS (Gibco), 2 mM L-glutamine (Gibco), penicillin (100 units /mL) and streptomycin (100 µ g/mL) (Gibco). MV4;11 cells were kept in RPMI 1640 supplemented with 10%(v/v) FBS (Gibco), 2 mM L-glutamine (Gibco), penicillin (100 units /mL) and streptomycin (100 µg/mL) (Gibco). Cells were kept at 37 °C, 5% CO2.
(§2) Testing compounds in cells
(§3) HeLa cells (3 x 105) were seeded onto each well on a six-well plate 24 h before treatment with test compounds. To treat the cells with the test compounds, medium was replaced with fresh medium containing specified concentration of test compounds for specified time. At the end of treatment, cells were washed with PBS and then were lysed by applying RIPA buffer (Sigma, R0278) supplemented with Protease inhibitor (Roche, # 04693159001) and Benzonase (Sigma, E1014). Lysate was clarified by centrifugation (20,000 x g, 10 min, 4 °C). Supernatant was collected and protein concentration of was determined by BCA assay. The rest of the clarified lysate was kept at -80° C before further […]
(§4) Protein on gel was transferred to nitrocellulose membrane using Bio-Rad Transblot system according to manufacturer guidelines. Blots were probed with anti- Brd4 (AbCam, ab128874), anti-Brd3 (AbCam, ab50818), anti- Brd2 (AbCam, ab139690) and anti-β-actin (Cell Signaling, no. 4970) antibodies. Blots were developed with secondary anti-mouse IgG (Licor, 926-32210) or anti-rabbit IgG (Licor, 926- 32213) antibodies from Licor and bands visualized using Bio-Rad ChemiDoc MP […]
(§5) Western Blot Quantification#
(§6) Image processing and band intensity quantification were performed using Bio-Rad Image Lab software version 6.0.0. Reported band intensities are normalized to loading control, i.e., β-actin or tubulin for total lysates.

Brd2 = target: T3, Brd2 (Homo sapiens, UniProt P25440); assay: as above; type: cell-based; details: 24 h
T3 construct: endogenous in cells; host or cells: HeLa
T3 sequence (P25440 whole entry): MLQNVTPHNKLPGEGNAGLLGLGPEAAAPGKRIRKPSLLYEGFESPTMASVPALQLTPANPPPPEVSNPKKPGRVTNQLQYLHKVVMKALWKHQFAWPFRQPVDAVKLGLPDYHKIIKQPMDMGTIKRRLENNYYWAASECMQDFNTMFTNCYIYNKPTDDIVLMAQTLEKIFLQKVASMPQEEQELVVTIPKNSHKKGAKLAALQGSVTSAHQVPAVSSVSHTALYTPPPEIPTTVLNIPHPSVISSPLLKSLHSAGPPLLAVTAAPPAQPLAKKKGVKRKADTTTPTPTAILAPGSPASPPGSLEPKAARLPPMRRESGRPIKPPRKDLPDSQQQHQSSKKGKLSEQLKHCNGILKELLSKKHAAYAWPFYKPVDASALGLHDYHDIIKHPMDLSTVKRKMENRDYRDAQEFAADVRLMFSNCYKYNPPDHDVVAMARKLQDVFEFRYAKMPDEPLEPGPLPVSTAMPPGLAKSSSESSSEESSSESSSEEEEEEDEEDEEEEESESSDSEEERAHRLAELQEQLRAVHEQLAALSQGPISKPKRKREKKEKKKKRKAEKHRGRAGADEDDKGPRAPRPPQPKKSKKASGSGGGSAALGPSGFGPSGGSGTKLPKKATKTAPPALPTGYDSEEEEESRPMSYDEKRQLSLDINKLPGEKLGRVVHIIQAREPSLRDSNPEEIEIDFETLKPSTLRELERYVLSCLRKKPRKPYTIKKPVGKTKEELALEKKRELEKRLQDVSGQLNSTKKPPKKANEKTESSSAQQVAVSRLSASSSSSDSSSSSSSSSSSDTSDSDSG
Experimental: as §1, §2, §3, §4, §5, §6

| Kd (Brd4BD2) | ΔG (Brd4BD2) | ΔH (Brd4BD2) | –TΔS (Brd4BD2) | DC50 (Brd3) | DC50 (Brd2) | SMILES |
| --- | --- | --- | --- | --- | --- | --- |
| 28 ± 2 nM | -10.30 kcal/mol | -10.4 ± 0.8 kcal/mol | 0.1 ± 0.6 kcal/mol | ~10 nM | ~10 nM | Cc1ncsc1-c1ccc(CNC(=O)[C@@H]2[C@@H](F)[C@@H](O)CN2C(=O)[C@@H](NC(=O)COCCOCCOCCNC(=O)C[C@@H]2N=C(c3ccc(Cl)cc3)c3c(sc(C)c3C)-n3c(C)nnc32)C(C)(C)C)cc1 [15a] |
| 32 ± 3 nM | -10.3 ± 0.1 kcal/mol | -9.3 ± 0.4 kcal/mol | -0.9 ± 0.4 kcal/mol | ~3000 nM | ~3000 nM | Cc1ncsc1-c1ccc(CNC(=O)[C@@H]2[C@H](F)[C@@H](O)CN2C(=O)[C@@H](NC(=O)COCCOCCOCCNC(=O)C[C@@H]2N=C(c3ccc(Cl)cc3)c3c(sc(C)c3C)-n3c(C)nnc32)C(C)(C)C)cc1 [15b] |
